Patent publication US20250059182A1, “SOS1 INHIBITORS” (Mirati Therapeutics, Inc., priority 2021, published 2025)
Structures can show the parent of a compound that is named as a salt. Where two headings read alike, the source gives them in different places.

Columns and labels:
pERK in MKN1 cells = test: pERK inhibition, In-Cell Western (LI-COR Odyssey), MKN1 cells; assay type: cell-based; conditions: Homo sapiens
In short: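 IC50 was fitted from % pERK inhibition, calculated as the GAPDH-normalised pERK signal of each well divided by the vehicle mean. Signal was imaged at 700 and 800 nm after fixation, methanol permeabilisation and dual antibody staining. Before fixation, MKN1 cells had received compound for about 0.5–1 h at 37 °C, top concentration 10 µM, nine 3-fold dilutions.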

[1] = biological target: T1, recombinant human SOS1 polypeptide (amino acids 560-1049) (Homo sapiens, UniProt Q07889); test: HTRF displacement assay: inhibition of labeled tracer binding to SOS1; conditions: Table A1, Morrison equation for competitive binding
T1 construct: corresponding to amino acids 560-1049, expressed in E. Coli; made in house; host or cells: E. coli
T1 sequence (Q07889 560-1049): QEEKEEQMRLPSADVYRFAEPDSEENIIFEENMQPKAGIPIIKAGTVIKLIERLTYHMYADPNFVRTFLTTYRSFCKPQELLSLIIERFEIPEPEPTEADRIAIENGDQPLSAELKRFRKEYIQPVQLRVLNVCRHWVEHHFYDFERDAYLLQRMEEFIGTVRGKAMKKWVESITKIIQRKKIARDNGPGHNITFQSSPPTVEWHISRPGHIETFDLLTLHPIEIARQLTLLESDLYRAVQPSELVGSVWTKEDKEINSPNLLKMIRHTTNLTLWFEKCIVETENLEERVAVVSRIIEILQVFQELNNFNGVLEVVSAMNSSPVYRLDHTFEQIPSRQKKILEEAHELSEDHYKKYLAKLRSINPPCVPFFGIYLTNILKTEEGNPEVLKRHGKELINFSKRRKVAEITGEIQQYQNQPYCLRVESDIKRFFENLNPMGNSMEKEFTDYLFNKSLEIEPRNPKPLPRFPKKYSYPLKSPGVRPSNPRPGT

[2] = MKN-1, Table B1, MKN1 or H358 cells (table does not say which), 0.5-1 hour incubation, read-out: IC50 (nM), pERK inhibition
[3] = MKN-1, read-out: IC50 (nM), pERK inhibition

Structure (SMILES): Cc1c(C#N)cccc1[C@@H](C)Nc1nnc(C)c2cnc(N3CCN(CCCF)CC3)cc12 [Example P-229, (R)-3-(1-((7-(4-(3-fluoropropyl)piperazin-1-yl)-4-methylpyrido[3,4-d]pyridazin-1-yl)amino)ethyl)-2-methylbenzonitrile]
- IC50 (pERK in MKN1 cells; [2]): 59.3 nM
- Ki [1]: 0.671 nM

Structure (SMILES): Cc1c(C#N)cccc1[C@@H](C)Nc1nnc(C)c2cc(F)c(N3CCC34COC4)cc12 [Example P-230, (R)-3-(1-((6-fluoro-4-methyl-7-(6-oxa-1-azaspiro[3.3]heptan-1-yl)phthalazin-1-yl)amino)ethyl)-2-methylbenzonitrile]
- IC50 (pERK in MKN1 cells; [2]): 26 nM
- Ki [1]: 2.51 nM

Structure (SMILES): Cc1c(C#N)cccc1[C@@H](C)Nc1nnc(C)c2cnc(N3CCC34COC4)cc12 [Example P-231, (R)-2-methyl-3-(1-((4-methyl-7-(6-oxa-1-azaspiro[3.3]heptan-1-yl)pyrido[3,4-d]pyridazin-1-yl)amino)ethyl)benzonitrile formic acid salt]
- IC50 (pERK in MKN1 cells; [3]): 4290 nM
- Ki [1]: 3.34 nM

Structure (SMILES): Cc1nnc(N[C@H](C)c2cccc(C(F)F)c2F)c2cc(N3CCC34COC4)c(F)cc12 [Example P-232, (R)-N-(1-(3-(difluoromethyl)-2-fluorophenyl)ethyl)-6-fluoro-4-methyl-7-(6-oxa-1-azaspiro[3.3]heptan-1-yl)phthalazin-1-amine]
- IC50 (pERK in MKN1 cells; [2]): 7130 nM
- Ki [1]: 1.18 nM

Structure (SMILES): Cc1nnc(N[C@H](C)c2cccc(C(F)F)c2F)c2cc(N3CCC34COC4)ncc12 [Example P-233, (R)-N-(1-(3-(difluoromethyl)-2-fluorophenyl)ethyl)-4-methyl-7-(6-oxa-1-azaspiro[3.3]heptan-1-yl)pyrido[3,4-d]pyridazin-1-amine]
- IC50 (pERK in MKN1 cells; [2]): 18.8 nM
- Ki [1]: 2.75 nM

Structure (SMILES): Cc1nnc(N[C@H](C)c2cccc(C(F)F)c2F)c2cc(N3CCC34CN(C)C4)c(F)cc12 [Example P-234, (R)-N-(1-(3-(difluoromethyl)-2-fluorophenyl)ethyl)-6-fluoro-4-methyl-7-(6-methyl-1,6-diazaspiro[3.3]heptan-1-yl)phthalazin-1-amine]
- IC50 (pERK in MKN1 cells; [2]): 50.2 nM
- Ki [1]: 0.416 nM

Structure (SMILES): Cc1c(C#N)cccc1[C@@H](C)Nc1nnc(C)c2ccc(N3CCC34CN(C)C4)cc12 [Example P-235, (R)-2-methyl-3-(1-((4-methyl-7-(6-methyl-1,6-diazaspiro[3.3]heptan-1-yl)phthalazin-1-yl)amino)ethyl)benzonitrile formic acid salt]
- IC50 (pERK in MKN1 cells; [3]): 95.8 nM
- Ki [1]: 0.618 nM

Structure (SMILES): Cc1nnc(N[C@H](C)c2cccc(C(F)F)c2F)c2cc(N3CCC34CN(C)C4)ccc12 [Example P-236, (R)-N-(1-(3-(difluoromethyl)-2-fluorophenyl)ethyl)-4-methyl-7-(6-methyl-1,6-diazaspiro[3.3]heptan-1-yl)phthalazin-1-amine]
- IC50 (pERK in MKN1 cells; [2]): 42.1 nM
- Ki [1]: 0.596 nM

Structure (SMILES): Cc1nnc(N[C@H](C)c2cccc(C(F)F)c2F)c2cc(N3CCC34CNC4)ncc12 [Example P-237, (R)-N-(1-(3-(difluoromethyl)-2-fluorophenyl)ethyl)-4-methyl-7-(1,6-diazaspiro[3.3]heptan-1-yl)pyrido[3,4-d]pyridazin-1-amine]
- IC50 (pERK in MKN1 cells; [2]): 182 nM
- Ki [1]: 0.515 nM

Structure (SMILES): Cc1nnc(N[C@H](C)c2cccc(C(F)F)c2F)c2cc(N3CCC34CN(C)C4)ncc12 [Example P-238, (R)-N-(1-(3-(difluoromethyl)-2-fluorophenyl)ethyl)-4-methyl-7-(6-methyl-1,6-diazaspiro[3.3]heptan-1-yl)pyrido[3,4-d]pyridazin-1-amine]
- IC50 (pERK in MKN1 cells; [2]): 17.7 nM
- Ki [1]: 0.4 nM

Structure (SMILES): Cc1nnc(N[C@H](C)c2cccc(C(F)F)c2F)c2cc(-c3ccc(=O)n(C)c3)ncc12 [Example P-239, (R)-5-(1-((1-(3-(difluoromethyl)-2-fluorophenyl)ethyl)amino)-4-methylpyrido[3,4-d]pyridazin-7-yl)-1-methylpyridin-2(1H)-one]
- IC50 (pERK in MKN1 cells; [2]): 606 nM
- Ki [1]: 15.1 nM
